This is an account of results in patent publication US20260207580A1, “NITROXOLINE FOR USE IN THE TREATMENT OR PREVENTION OF A MALIGNANT PERIPHERAL NERVE SHEATH TUMOUR” (HEALX LTD, priority 2022, published 2026).

Format in all cases: cell-based
Assay [1] deals with Nf1^−/−; Ink4a/Arf^+/− DNSCs. Nature of the assay: Cellular apoptosis, Caspase-Glo 3/7 kit (caspase 3/7 activity). To be noted: cells Nf1−/−, 48 hrs incubation, serially diluted from 105 μM. Here is the method:
(§1) Nf1-Ink4a/Arf mutant DNSCs have increased cell cycle activity and proliferation in vitro, consistent with the in vivo phenotypes. The present study utilizes Nf1^−/− and Nf1^−/−; Ink4a/Arf^+/− mutant DNSCs obtained by transient infection of Nf1^flox/flox and Nf1^flox/flox; Ink4a/Arf^flox/+ DNSCs with an adenovirus carrying Cre recombinase. Selectivity of nitroxilone was compared between Nf1^−/− and Nf1^−/−; Ink4a/Arf^+/− DNSCs.
(§2) Nf1^−/− and Nf1^−/−; Ink4a/Arf^+/− DNSCs described above were treated with serially diluted nitroxoline starting from 105 μM and incubated for 48 hrs. After the incubation period, proliferation, viability and apoptosis assays were performed as described below: • DNSC proliferation and viability was assessed using the CellTiter-Glo Assay (Promega) which measures […]. […] After 10 minutes, the plates were read using a 96-well microplate luminometer. • To assess cellular apoptosis, the Caspase-Glo 3/7 kit (Promega) was utilized according to the manufacturer's instructions. […] After 10 minutes, plates were read using a 96 well luminometer to measure caspase 3/7 activity.

Assay [2] concerns Nf1^−/− DNSCs. The assay is described as above. To be noted: nf1−/− cells; 48 hrs incubation; serially diluted from 105 μM. The procedure:
as §1, §2

For assay [3], the system named is Nf1^−/−; Ink4a/Arf^+/− DNSCs. The assay can be described thus: DNSC proliferation and viability, CellTiter-Glo Assay. The conditions noted are these: cells Nf1−/−, 48 hrs incubation, serially diluted from 105 μM. The procedure:
as §1, §2
On the technique in general: In ATP-based viability assays light output follows the ATP content of the culture.

For assay [4], the system named is Nf1^−/− DNSCs. Described as above. To be noted: cells Nf1−/−; 48 hrs incubation; serially diluted from 105 μM. The procedure: as §1, §2

In the case of `O=[N+]([O-])c1ccc(O)c2ncccc12` [Nitroxoline, 5-nitroquinolin-8-ol], the figures for the “concentrations at which the induction of apoptosis was evident” value (in assay [1]; in the assay on Nf1^−/− DNSCs [2]) were “greater than 10 μM” and 30 to 100 µM, respectively. Further, the figures for the “concentrations at which the antiproliferative effect was observed” value (in assay [3]; in the assay with Nf1^−/− DNSCs [4]) were “greater than 3 μM” and “greater than 10 μM”, respectively.
